In assay [1] the target is T1, MCT4 (monocarboxylate transporter 4) (Homo sapiens, UniProt O15427).
T1 construct: gene SLC16A3
T1 sequence (O15427 2-465): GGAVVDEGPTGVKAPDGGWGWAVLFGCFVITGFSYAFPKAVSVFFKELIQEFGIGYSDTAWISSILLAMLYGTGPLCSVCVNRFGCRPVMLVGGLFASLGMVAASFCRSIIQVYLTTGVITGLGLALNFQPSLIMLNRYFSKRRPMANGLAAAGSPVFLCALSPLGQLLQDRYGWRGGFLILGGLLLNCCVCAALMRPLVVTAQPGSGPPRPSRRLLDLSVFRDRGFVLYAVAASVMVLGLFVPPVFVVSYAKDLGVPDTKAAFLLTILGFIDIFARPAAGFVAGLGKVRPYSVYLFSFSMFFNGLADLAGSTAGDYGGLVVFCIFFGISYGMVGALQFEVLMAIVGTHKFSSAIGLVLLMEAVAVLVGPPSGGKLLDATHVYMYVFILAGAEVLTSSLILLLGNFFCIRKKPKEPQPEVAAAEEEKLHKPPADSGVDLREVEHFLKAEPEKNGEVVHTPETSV
T1 sequence (P35613 22-385 partner): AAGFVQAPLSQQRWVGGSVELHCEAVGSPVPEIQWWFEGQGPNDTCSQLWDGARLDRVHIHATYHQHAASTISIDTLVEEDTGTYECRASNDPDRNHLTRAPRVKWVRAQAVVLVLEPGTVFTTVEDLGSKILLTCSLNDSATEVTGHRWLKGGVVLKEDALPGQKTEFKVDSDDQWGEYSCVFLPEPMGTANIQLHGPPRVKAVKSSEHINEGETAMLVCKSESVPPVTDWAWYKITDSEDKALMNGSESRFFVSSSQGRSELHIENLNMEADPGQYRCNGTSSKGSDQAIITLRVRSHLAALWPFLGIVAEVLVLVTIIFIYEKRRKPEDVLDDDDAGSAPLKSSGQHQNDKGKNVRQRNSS
The assay can be described thus: intracellular lactate accumulation and 3H-lactate efflux in HAP1 MCT1-KO cells; DARTS in HCT116 membrane extracts. The assay is classed as cell-based.

Assay [2] has as its target T2, MCT1 (monocarboxylate transporter 1) (Homo sapiens, UniProt P53985).
T2 construct: gene SLC16A1
T2 sequence (P53985 1-500): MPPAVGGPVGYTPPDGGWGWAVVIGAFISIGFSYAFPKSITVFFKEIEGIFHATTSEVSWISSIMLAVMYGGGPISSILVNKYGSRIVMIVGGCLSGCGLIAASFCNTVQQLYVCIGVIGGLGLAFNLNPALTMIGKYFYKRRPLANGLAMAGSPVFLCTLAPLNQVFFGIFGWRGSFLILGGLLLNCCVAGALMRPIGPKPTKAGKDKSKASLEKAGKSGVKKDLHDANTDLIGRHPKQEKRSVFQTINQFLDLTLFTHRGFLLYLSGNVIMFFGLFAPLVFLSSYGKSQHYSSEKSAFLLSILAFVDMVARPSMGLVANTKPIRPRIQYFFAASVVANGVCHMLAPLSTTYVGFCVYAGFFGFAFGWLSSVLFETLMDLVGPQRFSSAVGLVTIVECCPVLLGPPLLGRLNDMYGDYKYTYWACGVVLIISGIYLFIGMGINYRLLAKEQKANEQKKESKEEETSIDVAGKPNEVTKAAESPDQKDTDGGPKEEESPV
T2 sequence (P35613 22-385 partner): T1 sequence (P35613 22-385 partner)
Description: intracellular lactate accumulation and 3H-lactate efflux in HAP1 MCT4-KO cells; DARTS in HCT116 membrane extracts.

On to `CCOC(=O)Oc1c(OC)cc(C(=O)O[C@@H]2C[C@@H]3CN4CCc5c([nH]c6cc(OC)ccc56)[C@H]4C[C@@H]3[C@H](C(=O)OC)[C@H]2OC)cc1OC` [Syrosingopine], for which the IC50 (in general, the midpoint of a concentration-inhibition curve) is approximately 0.04 µM in assay [1] and approximately 2.5 µM in assay [2].

Values taken from publication PMC6302548, “Dual Inhibition of the Lactate Transporters MCT1 and MCT4 Is Synthetic Lethal with Metformin due to NAD+ Depletion in Cancer Cells” (Cell Reports, 2018).
